The results in this text go back to patent US8063071B2 (GlaxoSmithKline, LLC, priority 2007, dated 2011).

Structures can show the parent of a compound that is named as a salt.

The test system of experiment [1] is human monocyte stimulated cytokine production (TNF-α). In words: Monocyte assay (LPS-stimulated TNF-α production). Type of experiment: cell-based. Particulars: 24 h, 200 ng/mL LPS, TNF-α by ELISA. The gist of the method:
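Human CD14+ monocytes were purified from blood and plated at 1×10^6 cells/mL in RPMI 1640 with 10% FBS. Compound was added 30 min before stimulation with 200 ng/mL LPS (0.1% DMSO final), followed by 24 hrs at 37 C. Supernatant TNF-α was measured by ELISA, and viability by trypan blue exclusion.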

Experiment [2] has as its target T1, Recombinant human IKKβ (residues 1-737) (Homo sapiens, UniProt O14920).
T1 construct: Recombinant human IKKβ (residues 1-737); GST (C); made in house
T1 sequence (O14920 1-737): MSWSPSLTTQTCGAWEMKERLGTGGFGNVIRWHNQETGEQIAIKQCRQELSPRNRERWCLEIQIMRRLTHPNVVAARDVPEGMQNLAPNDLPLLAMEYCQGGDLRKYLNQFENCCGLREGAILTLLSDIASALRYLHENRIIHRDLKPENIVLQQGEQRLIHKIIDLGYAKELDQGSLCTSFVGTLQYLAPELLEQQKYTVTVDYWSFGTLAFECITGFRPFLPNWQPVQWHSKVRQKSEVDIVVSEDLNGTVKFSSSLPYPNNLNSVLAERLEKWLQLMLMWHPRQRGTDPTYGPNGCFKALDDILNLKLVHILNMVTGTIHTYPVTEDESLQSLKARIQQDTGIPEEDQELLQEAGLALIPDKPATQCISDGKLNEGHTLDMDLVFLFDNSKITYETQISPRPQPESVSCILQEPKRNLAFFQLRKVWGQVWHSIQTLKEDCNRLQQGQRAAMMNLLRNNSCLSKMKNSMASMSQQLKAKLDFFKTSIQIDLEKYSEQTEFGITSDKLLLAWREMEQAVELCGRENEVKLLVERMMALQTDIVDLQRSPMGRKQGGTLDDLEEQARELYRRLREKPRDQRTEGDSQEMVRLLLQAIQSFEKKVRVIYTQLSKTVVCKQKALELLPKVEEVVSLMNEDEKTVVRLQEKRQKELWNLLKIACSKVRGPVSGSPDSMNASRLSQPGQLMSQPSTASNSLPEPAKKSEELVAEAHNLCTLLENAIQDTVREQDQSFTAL
As to the kind of experiment: IKK2 assay (TR-FRET). Type of experiment: biochemical. Particulars: ATP 1 μM final, read-out: pIC50 against IKK2 (converted). The gist of the method: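 Baculovirus-expressed C-terminal GST-tagged IKKβ (0.5-5 nM final) in HEPES pH 7.4, MgCl2, CHAPS, DTT, BSA with 1.7% DMSO; 25 nM GST-IB substrate and 1 μM ATP, 15 min at room temperature. EDTA stop; phospho-Ser32/36 detected by Eu-antibody/APC-anti-GST TR-FRET, 665/620 nm ratio.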
On the technique in general: In TR-FRET formats the signal depends on donor and acceptor labels being close together.

Regarding `CCS(=O)(=O)N1CCC(c2c[nH]c3c(C(N)=O)cc(-c4csc(CN[C@@H](C)C(C)C)c4)cc23)CC1` [Example 116, 5-[5-({[(1S)-1,2-dimethylpropyl]amino}methyl)-3-thienyl]-3-[1-(ethylsulfonyl)-4-piperidinyl]-1H-indole-7-carboxamide trifluoroacetate], the IC50 is at most 1.5 µM in experiment [1] and at most 10 µM in experiment [2].

On to `CCS(=O)(=O)N1CCC(c2c[nH]c3c(C(N)=O)cc(-c4csc(CNCc5ccccc5)c4)cc23)CC1` [Example 118, 3-[1-(ethylsulfonyl)-4-piperidinyl]-5-(5-{[(phenylmethyl)amino]methyl}-3-thienyl)-1H-indole-7-carboxamide trifluoroacetate], for which the IC50 in experiment [1] was above 1 µM; in experiment [2], at most 10 µM.

Consider `CCS(=O)(=O)N1CCC(c2c[nH]c3c(C(N)=O)cc(-c4csc(CNC[C@@H]5CCCO5)c4)cc23)CC1` [Example 119, 3-[1-(ethylsulfonyl)-4-piperidinyl]-5-[5-({[(2S)-tetrahydro-2-furanylmethyl]amino}methyl)-3-thienyl]-1H-indole-7-carboxamide trifluoroacetate], for which the values for the IC50 in experiment [1] and in experiment [2] were at most 1.5 µM and at most 10 µM, respectively.

For the compound `CCS(=O)(=O)N1CCC(c2c[nH]c3c(C(N)=O)cc(-c4csc(CNCC5CCOCC5)c4)cc23)CC1` [Example 120, 3-[1-(ethylsulfonyl)-4-piperidinyl]-5-(5-{[(tetrahydro-2H-pyran-4-ylmethyl)amino]methyl}-3-thienyl)-1H-indole-7-carboxamide trifluoroacetate], the IC50 in experiment [1] was at most 1.5 µM; in experiment [2], at most 10 µM.

Regarding `CCCCNCc1cc(-c2cc(C(N)=O)c3[nH]cc(C4CCN(S(=O)(=O)CC)CC4)c3c2)cs1` [Example 121, 5-{5-[(butylamino)methyl]-3-thienyl}-3-[1-(ethylsulfonyl)-4-piperidinyl]-1H-indole-7-carboxamide trifluoroacetate], the figures for the IC50 in experiment [1] and in experiment [2] were at most 1.5 µM and at most 10 µM, respectively.

Turning to `CCS(=O)(=O)N1CCC(c2c[nH]c3c(C(N)=O)cc(-c4csc(CN5CCC[C@@H]5COC)c4)cc23)CC1` [Example 124, 3-[1-(ethylsulfonyl)-4-piperidinyl]-5-[5-({(2R)-2-[(methyloxy)methyl]-1-pyrrolidinyl}methyl)-3-thienyl]-1H-indole-7-carboxamide trifluoroacetate], the IC50 is at most 1.5 µM in experiment [1] and at most 10 µM in experiment [2].

`CCS(=O)(=O)N1CCC(c2c[nH]c3c(C(N)=O)cc(-c4ccc(CCNC)cc4)cc23)CC1` [Example 125, 3-[1-(ethylsulfonyl)-4-piperidinyl]-5-{4-[2-(methylamino)ethyl]phenyl}-1H-indole-7-carboxamide]: the IC50 is at most 1.5 µM in experiment [1] and at most 10 µM in experiment [2].

For the compound `CCCNCCc1ccc(-c2cc(C(N)=O)c3[nH]cc(C4CCN(S(=O)(=O)CC)CC4)c3c2)cc1` [Example 126, 3-[1-(ethylsulfonyl)-4-piperidinyl]-5-{4-[2-(propylamino)ethyl]phenyl}-1H-indole-7-carboxamide], the IC50 in experiment [1] is at most 1.5 µM; in experiment [2], at most 10 µM.

Turning to `CCNCCc1ccc(-c2cc(C(N)=O)c3[nH]cc(C4CCN(S(=O)(=O)CC)CC4)c3c2)cc1` [Example 127, 5-{4-[2-(ethylamino)ethyl]phenyl}-3-[1-(ethylsulfonyl)-4-piperidinyl]-1H-indole-7-carboxamide], the IC50 was at most 1.5 µM in experiment [1] and at most 10 µM in experiment [2].

`CCS(=O)(=O)N1CCC(c2c[nH]c3c(C(N)=O)cc(-c4ccc(CNC(=O)c5cc(C)nn5C(C)(C)C)cc4)cc23)CC1` [Example 128, 5-{4-[({[1-(1,1-dimethylethyl)-3-methyl-1H-pyrazol-5-yl]carbonyl}amino)methyl]phenyl}-3-[1-(ethylsulfonyl)-4-piperidinyl]-1H-indole-7-carboxamide trifluoroacetate]: the values for the IC50 in experiment [1] and in experiment [2] were above 1 µM and at most 10 µM, respectively.

In the case of `CCS(=O)(=O)N1CCC(c2c[nH]c3c(C(N)=O)cc(-c4ccc(CNC(=O)c5ccncc5)cc4)cc23)CC1` [Example 129, 3-[1-(ethylsulfonyl)-4-piperidinyl]-5-(4-{[(4-pyridinylcarbonyl)amino]methyl}phenyl)-1H-indole-7-carboxamide], the results for the IC50 in experiment [1] and in experiment [2] were at most 1.5 µM and at most 10 µM, respectively.

Regarding `CCS(=O)(=O)N1CCC(c2c[nH]c3c(C(N)=O)cc(-c4ccc(CNC(=O)C5CCCC5)cc4)cc23)CC1` [Example 130, 5-(4-{[(cyclopentylcarbonyl)amino]methyl}phenyl)-3-[1-(ethylsulfonyl)-4-piperidinyl]-1H-indole-7-carboxamide], the IC50 was at most 1.5 µM in experiment [1] and at most 10 µM in experiment [2].

For `CCS(=O)(=O)N1CCC(c2c[nH]c3c(C(N)=O)cc(-c4ccc(CNC(=O)c5ccco5)cc4)cc23)CC1` [Example 131, 3-[1-(ethylsulfonyl)-4-piperidinyl]-5-(4-{[(2-furanylcarbonyl)amino]methyl}phenyl)-1H-indole-7-carboxamide], the IC50 in experiment [1] is at most 1.5 µM; in experiment [2], at most 10 µM.

With `CCS(=O)(=O)N1CCC(c2c[nH]c3c(C(N)=O)cc(-c4ccc(CCNC(=O)C5CCC5)cc4)cc23)CC1` [Example 132, 5-(4-{2-[(cyclobutylcarbonyl)amino]ethyl}phenyl)-3-[1-(ethylsulfonyl)-4-piperidinyl]-1H-indole-7-carboxamide], the IC50 in experiment [1] is above 1 µM; in experiment [2], at most 10 µM.

On to `CCS(=O)(=O)N1CCC(c2c[nH]c3c(C(N)=O)cc(-c4ccc(CCNC(=O)C5CCCCC5)cc4)cc23)CC1` [Example 133, 5-(4-{2-[(cyclohexylcarbonyl)amino]ethyl}phenyl)-3-[1-(ethylsulfonyl)-4-piperidinyl]-1H-indole-7-carboxamide], for which the IC50 in experiment [1] was above 1 µM; in experiment [2], at most 10 µM.

With `CCS(=O)(=O)N1CCC(c2c[nH]c3c(C(N)=O)cc(-c4cccc(CCNC(=O)C5CCCCC5)c4)cc23)CC1` [Example 134, 5-(3-{2-[(cyclohexylcarbonyl)amino]ethyl}phenyl)-3-[1-(ethylsulfonyl)-4-piperidinyl]-1H-indole-7-carboxamide], the figures for the IC50 in experiment [1] and in experiment [2] were above 1 µM and at most 10 µM, respectively.

`CCN1CCN(c2ccc(-c3cc(C(N)=O)c4[nH]cc(C5CCN(S(=O)(=O)CC)CC5)c4c3)cn2)CC1` [Example 136, 5-[6-(4-ethyl-1-piperazinyl)-3-pyridinyl]-3-[1-(ethylsulfonyl)-4-piperidinyl]-1H-indole-7-carboxamide trifluoroacetate]: the IC50 in experiment [1] is above 1 µM; in experiment [2] it was at most 10 µM.

`CCS(=O)(=O)N1CCC(c2c[nH]c3c(C(N)=O)cc(-c4ccc(CNC)cc4)cc23)CC1` [Example 139, 3-[1-(ethylsulfonyl)-4-piperidinyl]-5-{4-[(methylamino)methyl]phenyl}-1H-indole-7-carboxamide trifluoroacetate]: the results for the IC50 in experiment [1] and in experiment [2] were at most 1.5 µM and at most 10 µM, respectively.

Consider `CCS(=O)(=O)N1CCC(c2c[nH]c3c(C(N)=O)cc(-c4ccc(CNC(C)C)cc4)cc23)CC1` [Example 140, 3-[1-(ethylsulfonyl)-4-piperidinyl]-5-(4-{[(1-methylethyl)amino]methyl}phenyl)-1H-indole-7-carboxamide], for which the IC50 in experiment [1] was above 1 µM; in experiment [2] it was at most 10 µM.

For `CCCNCc1ccc(-c2cc(C(N)=O)c3[nH]cc(C4CCN(S(=O)(=O)CC)CC4)c3c2)cc1` [Example 141, 3-[1-(ethylsulfonyl)-4-piperidinyl]-5-{4-[(propylamino)methyl]phenyl}-1H-indole-7-carboxamide trifluoroacetate], the results for the IC50 in experiment [1] and in experiment [2] were at most 1.5 µM and at most 10 µM, respectively.

In the case of `CCS(=O)(=O)N1CCC(c2c[nH]c3c(C(N)=O)cc(-c4ccc(CNC5CCCC5)cc4)cc23)CC1` [Example 143, 5-{4-[(cyclopentylamino)methyl]phenyl}-3-[1-(ethylsulfonyl)-4-piperidinyl]-1H-indole-7-carboxamide trifluoroacetate], the IC50 in experiment [1] was above 1 µM; in experiment [2], at most 10 µM.

As to `CCS(=O)(=O)N1CCC(c2c[nH]c3c(C(N)=O)cc(-c4ccc(CNC5CCC5)cc4)cc23)CC1` [Example 144, 5-{4-[(cyclobutylamino)methyl]phenyl}-3-[1-(ethylsulfonyl)-4-piperidinyl]-1H-indole-7-carboxamide], the IC50 in experiment [1] is at most 1.5 µM; in experiment [2], at most 10 µM.
